In ChEMBL document CHEMBL3886390, “Triazolyl PDE10 inhibitors” (2015):

Target: cAMP and cAMP-inhibited cGMP 3',5'-cyclic phosphodiesterase 10A (Homo sapiens, UniProt Q9Y233)
Experiment: Fluorescence Polarization Assay: In a typical experiment the PDE10 inhibitory activity of the compounds of the present invention was determined in accordance with the following experimental method. PDE10A2 was amplified from human fetal brain cDNA (Clontech, Mountain View, Calif.) using a forward primer corresponding to nucleotides 56-77 of human PDE10A2 (Accession No. AF127480, Genbank Identifier 4894716), containing a Kozak consensus sequence, and a reverse primer corresponding to nucleotides 2406-2413 of human PDE10A2 (Accession No. AF127480, Genbank Identifier 4894716). Amplification with Easy-A polymerase (Stratagene, La Jolla, Calif.) was 95° C. for 2 minutes followed by thirty three cycles of 95° C. for 40 seconds, 55° C. for 30 seconds, and 72° C. for 2 minutes 48 seconds. Final extension was 72° C. for 7 minutes. The PCR product was TA cloned into pcDNA3.2-TOPO (Invitrogen, Carlsbad, Calif.) according to standard protocol. AD293 cells with 70-80% confluency were transiently transfected with human PDE10A2.

Chain of cAMP and cAMP-inhibited cGMP 3',5'-cyclic phosphodiesterase 10A (Q9Y233 whole entry): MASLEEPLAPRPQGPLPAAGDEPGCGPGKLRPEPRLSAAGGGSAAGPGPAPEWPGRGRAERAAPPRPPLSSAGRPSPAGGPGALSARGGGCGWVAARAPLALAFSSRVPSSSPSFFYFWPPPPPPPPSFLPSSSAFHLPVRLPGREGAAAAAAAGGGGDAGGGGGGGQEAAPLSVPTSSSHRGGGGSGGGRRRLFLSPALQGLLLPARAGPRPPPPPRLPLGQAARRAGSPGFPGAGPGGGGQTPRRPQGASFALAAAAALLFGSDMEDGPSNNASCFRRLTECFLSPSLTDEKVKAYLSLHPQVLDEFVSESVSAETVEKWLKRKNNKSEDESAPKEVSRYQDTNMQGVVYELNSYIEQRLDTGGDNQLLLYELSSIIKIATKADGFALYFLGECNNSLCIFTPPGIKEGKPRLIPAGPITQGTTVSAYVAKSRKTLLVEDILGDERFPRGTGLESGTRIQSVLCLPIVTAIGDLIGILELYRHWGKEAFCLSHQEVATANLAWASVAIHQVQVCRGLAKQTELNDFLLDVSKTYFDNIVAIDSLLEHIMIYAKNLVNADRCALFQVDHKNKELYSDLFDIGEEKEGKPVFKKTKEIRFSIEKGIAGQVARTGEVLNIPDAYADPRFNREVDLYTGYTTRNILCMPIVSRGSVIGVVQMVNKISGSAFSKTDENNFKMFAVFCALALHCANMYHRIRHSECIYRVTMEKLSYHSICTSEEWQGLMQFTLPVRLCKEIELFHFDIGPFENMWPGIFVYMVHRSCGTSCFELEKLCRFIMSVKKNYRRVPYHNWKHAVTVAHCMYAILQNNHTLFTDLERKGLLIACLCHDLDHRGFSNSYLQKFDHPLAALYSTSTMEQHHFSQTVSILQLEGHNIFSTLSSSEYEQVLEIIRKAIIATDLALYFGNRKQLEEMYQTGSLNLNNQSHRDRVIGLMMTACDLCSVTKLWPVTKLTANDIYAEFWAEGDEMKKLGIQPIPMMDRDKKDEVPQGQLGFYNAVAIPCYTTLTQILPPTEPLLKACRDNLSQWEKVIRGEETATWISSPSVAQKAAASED

SMILES	Ki [nM]
Cc1nc(C2CC2c2nc3ccc(F)cc3[nH]2)cc(-n2nc(C)nc2C)n1 (configuration not stated)	14.2
COc1ccc(COc2cc(-n3nc(C)nc3Cc3ccc(OC)c(OC)c3)nc(C)n2)nc1	3.3
